The record followed here is patent publication US20260097126A1, “PHARMACEUTICAL FORMULATIONS AND METHODS FOR THE TREATMENT OF METABOLIC AND LIVER DISORDERS” (priority 2022, published 2026).

SMILES strings stand for the structures. Numbered stars: 1 amine (or outer) side, 2 acyl side, 3 side chain; on linkers, the order of the positions; unused ones are H or OH. Square brackets hold non-standard residues; d marks the D form. Side chains are listed from the residue outwards. Peptide text beside a SMILES is read from it. * marks the point of attachment. Nonadecanoyl(19-PO3H2) = O=C(CCCCCCCCCCCCCCCCCCP(=O)(O)O)*; γGlu = O=C(O)[C@H](CCC(=O)[*:2])N[*:1]; AEEA = NCCOCCOCC(=O)O; Aib = CC(C)(N)C(=O)O

A short description of this data set: Pharmacokinetic study of Compounds 4, 14, 15, 17 in monkeys. As to conditions: cynomolgus monkey, plasma, sc, 0.2 mg/kg. How it is done:
The formulations were administered to cynomolgus monkeys at a dose of 0.2 mg/kg. Plasma concentration versus time data was collected and pharmacokinetic values determined.
As for `CC[C@H](C)[C@H](NC(=O)[C@H](CC(C)C)NC(=O)[C@H](Cc1c[nH]c2ccccc12)NC(=O)[C@H](CCC(N)=O)NC(=O)[C@@H](NC(=O)[C@H](Cc1ccccc1)NC(=O)[C@H](C)NC(=O)[C@H](CCC(N)=O)NC(=O)[C@H](CCC(N)=O)NC(=O)[C@H](C)NC(=O)[C@@H](NC(=O)[C@H](CCCCNC(=O)COCCOCCNC(=O)COCCOCCNC(=O)CC[C@H](NC(=O)CCCCCCCCCCCCCCCCCCP(=O)(O)O)C(=O)O)NC(=O)[C@H](CC(=O)O)NC(=O)[C@H](CC(C)C)NC(=O)C(C)(C)NC(=O)[C@@H](NC(=O)[C@H](CO)NC(=O)[C@H](Cc1ccc(O)cc1)NC(=O)[C@H](CC(=O)O)NC(=O)[C@H](CO)NC(=O)[C@@H](NC(=O)[C@H](Cc1ccccc1)NC(=O)[C@@H](NC(=O)CNC(=O)[C@H](CCC(=O)O)NC(=O)C(C)(C)NC(=O)[C@@H](N)Cc1ccc(O)cc1)[C@@H](C)O)[C@@H](C)O)[C@@H](C)CC)[C@@H](C)CC)C(C)C)C(=O)N[C@@H](C)C(=O)NCC(=O)NCC(=O)N1CCC[C@H]1C(=O)N[C@@H](CO)C(=O)N[C@@H](CO)C(=O)NCC(=O)N[C@@H](C)C(=O)N1CCC[C@H]1C(=O)N1CCC[C@H]1C(=O)N1CCC[C@H]1C(=O)N[C@@H](CO)C(N)=O` [Compound 15] (H-Y[Aib]EGTFTSDYSI[Aib]LDK([AEEA-AEEA-γGlu-Nonadecanoyl(19-PO3H2)])IAQQAFVQWLIAGGPSSGAPPPS-NH2), the total exposure AUC(0-inf) – broadly, total exposure, with the tail of the curve extrapolated – stood at 227 µg·h/mL; the exposure AUC(0-t) – broadly, exposure summed from dosing to a finite time, without extrapolation to infinity – came out at 221 µg·h/mL; the CL/F (commonly clearance divided by bioavailability, as obtained after extravascular dosing) is 21.4 mL/day/kg; the peak level (Cmax) was 2260 ng/mL. The time to peak (Tmax) – broadly, the time from dosing to the highest level – amounted to 18.7 h; the Vd/F (as a rule, the volume of distribution divided by bioavailability) turned out to be 0.114 L/kg; the half-life (as a rule, the time needed for the level to fall by half in the phase considered) was 89.3 h.
In the case of `CC[C@H](C)[C@H](NC(=O)[C@H](CC(C)C)NC(=O)[C@H](Cc1c[nH]c2ccccc12)NC(=O)[C@H](CCC(N)=O)NC(=O)[C@@H](NC(=O)[C@H](Cc1ccccc1)NC(=O)[C@H](C)NC(=O)[C@H](CCCCNC(=O)COCCOCCNC(=O)COCCOCCNC(=O)CC[C@H](NC(=O)CCCCCCCCCCCCCCCCCCP(=O)(O)O)C(=O)O)NC(=O)[C@H](CCC(N)=O)NC(=O)[C@H](C)NC(=O)[C@@H](NC(=O)[C@H](CCCCN)NC(=O)[C@H](CC(=O)O)NC(=O)[C@H](CC(C)C)NC(=O)C(C)(C)NC(=O)[C@@H](NC(=O)[C@H](CO)NC(=O)[C@H](Cc1ccc(O)cc1)NC(=O)[C@H](CC(=O)O)NC(=O)[C@H](CO)NC(=O)[C@@H](NC(=O)[C@H](Cc1ccccc1)NC(=O)[C@@H](NC(=O)CNC(=O)[C@H](CCC(=O)O)NC(=O)C(C)(C)NC(=O)[C@@H](N)Cc1ccc(O)cc1)[C@@H](C)O)[C@@H](C)O)[C@@H](C)CC)[C@@H](C)CC)C(C)C)C(=O)N[C@@H](C)C(=O)NCC(=O)NCC(=O)N1CCC[C@H]1C(=O)N[C@@H](CO)C(=O)N[C@@H](CO)C(=O)NCC(=O)N[C@@H](C)C(=O)N1CCC[C@H]1C(=O)N1CCC[C@H]1C(=O)N1CCC[C@H]1C(=O)N[C@@H](CO)C(N)=O` [Compound 14], the AUC(0-inf) amounted to 179 µg·h/mL; the AUC(0-t) is 178 µg·h/mL; the CL/F was 28.6 mL/day/kg; the Cmax (in general, the peak of the concentration-time curve) worked out at 1430 ng/mL. The time to peak (Tmax) came to 24 h, the Vd/F was determined as 0.104 L/kg and the half-life was 60.9 h.
Compound `CC[C@H](C)[C@H](NC(=O)[C@H](CC(C)C)NC(=O)[C@H](Cc1c[nH]c2ccccc12)NC(=O)[C@H](CCC(N)=O)NC(=O)[C@@H](NC(=O)[C@H](Cc1ccccc1)NC(=O)[C@H](C)NC(=O)[C@H](CCCCNC(=O)COCCOCCNC(=O)COCCOCCNC(=O)CC[C@H](NC(=O)CCCCCCCCCCCCCCCCCCP(=O)(O)O)C(=O)O)NC(=O)[C@H](CCC(N)=O)NC(=O)[C@H](C)NC(=O)[C@@H](NC(=O)[C@H](CCCCN)NC(=O)[C@H](CC(=O)O)NC(=O)[C@H](CC(C)C)NC(=O)C(C)(C)NC(=O)[C@@H](NC(=O)[C@H](CO)NC(=O)[C@H](Cc1ccc(O)cc1)NC(=O)[C@H](CC(=O)O)NC(=O)[C@H](CO)NC(=O)[C@@H](NC(=O)[C@H](Cc1ccccc1)NC(=O)[C@@H](NC(=O)CNC(=O)[C@H](CCC(=O)O)NC(=O)C(C)(C)NC(=O)[C@@H](N)Cc1ccc(O)cc1)[C@@H](C)O)[C@@H](C)O)[C@@H](C)CC)C(C)C)C(C)C)C(=O)N[C@@H](CCCNC(=N)N)C(=O)NCC(=O)NCC(=O)N1CCC[C@H]1C(=O)N[C@@H](CO)C(=O)N[C@@H](CO)C(=O)NCC(=O)N[C@@H](C)C(=O)N1CCC[C@H]1C(=O)N1CCC[C@H]1C(=O)N1CCC[C@H]1C(=O)N[C@@H](CO)C(N)=O` [Compound 17] (H-Y[Aib]EGTFTSDYSI[Aib]LDKVAQK([AEEA-AEEA-γGlu-Nonadecanoyl(19-PO3H2)])AFVQWLIRGGPSSGAPPPS-NH2) had an AUC(0-inf) of 346 µg·h/mL, an exposure AUC(0-t) of 316 µg·h/mL, an apparent clearance CL/F of 14.2 mL/day/kg and a peak concentration (Cmax) of 1980 ng/mL. Moreover, the Tmax was 28 h, the Vd/F was determined as 0.113 L/kg and the half-life is 134 h.
